The record followed here is ChEMBL document CHEMBL2413024, “Design and synthesis of pyrido[3,2-α]carbazole derivatives and their analogues as potent antitumour agents” (Eur J Med Chem, 2013).

For data set [1], the system named is HT-29. In words: Antitumor activity against human HT-29 cells after 72 hrs by sulforhodamine B assay. The format is functional, cell-based. The conditions noted are these: HT-29, 72 h.
For data set [2], the system named is A549. In words: Antitumor activity against human A549 cells after 72 hrs by sulforhodamine B assay. The format is functional, cell-based. To be noted: A549, 72 h. Background: The SRB assay estimates cell density from bound dye.
The nature of data set [3]: Aqueous solubility of the compound in pure water at 25 degC. The format is physicochemical.
The subject of data set [4] is HT-29. In words: Ratio of R16 IC50 to compound IC50 for human HT-29 cells. In kind it is functional.
The subject of data set [5] is A549. As to the kind of experiment: Ratio of R16 IC50 to compound IC50 for human A549 cells. The format is functional.

By IC50 is commonly meant the midpoint of a concentration-inhibition curve. In the case of `CN(C)CCN1C(=O)c2cccc3c2c(cc2c4ccccc4sc32)C1=O`, the IC50 in data set [1] was determined as 1090 nM; in data set [2], 200 nM.

The term solubility denotes the concentration that dissolves in the medium under given conditions. The compound `CN(C)CCNC(=O)c1cc2c3cc(O)ccc3n(C)c2c2cccnc12.Cl` came in with a solubility in data set [3] of 22.4 mg/mL.

As to `CN(C)CCNC(=O)c1cc2c3ncccc3n(C)c2c2cccnc12`, the IC50 in data set [1] turned out to be 220 nM; in data set [2], 360 nM.

As to `CN(C)CCNC(=O)c1cc2c3cnccc3n(C)c2c2cccnc12`, the IC50 in data set [1] turned out to be 150 nM; in data set [2] it was 160 nM.

For the compound `CN(C)CCNC(=O)c1cc2c3ccncc3n(C)c2c2cccnc12`, the IC50 in data set [1] and in data set [2] was 130 nM each time.

Consider `CN(C)CCNC(=O)c1cc2c3cccnc3n(C)c2c2cccnc12`, for which the IC50 was 180 nM in data set [1] and 160 nM in data set [2].

Consider `Cn1c2ccccc2c2cc(C(=O)NCCN3CCCC3)c3ncccc3c21`, for which the IC50 was 630 nM in data set [1] and 270 nM in data set [2].

For `Cn1c2ccccc2c2cc(C(=O)NCCN3CCNCC3)c3ncccc3c21`, the figures for the IC50 in data set [1] and in data set [2] were 1250 nM and 780 nM, respectively.

As for `CN1CCN(CCNC(=O)c2cc3c4ccccc4n(C)c3c3cccnc23)CC1`, the IC50 in data set [1] amounted to 1240 nM; in data set [2], 890 nM.

`Cn1c2ccccc2c2cc(C(=O)NCCN3CCOCC3)c3ncccc3c21`: the IC50 in data set [1] turned out to be 2240 nM; in data set [2], 1180 nM.

For the compound `Cn1c2ccccc2c2cc(C(=O)NCCN3CCCCC3)c3ncccc3c21`, the IC50 was determined as 1300 nM in data set [1] and 820 nM in data set [2].

As for `Cn1c2ccccc2c2cc(C(=O)NCCN)c3ncccc3c21`, the results for the IC50 in data set [1] and in data set [2] were 2470 nM and 2110 nM, respectively.

For the compound `CNCCNC(=O)c1cc2c3ccccc3n(C)c2c2cccnc12`, the figures for the IC50 in data set [1] and in data set [2] were 1460 nM and 1370 nM, respectively.

With `Cn1c2ccccc2c2cc(C(=O)NCCO)c3ncccc3c21`, the IC50 in data set [1] was determined as 4450 nM; in data set [2], 3060 nM.

Consider `CN(C)CCCNC(=O)c1cc2c3ccccc3n(C)c2c2cccnc12`, for which the IC50 in data set [1] worked out at 850 nM; in data set [2], 560 nM.

Take `Cn1c2ccccc2c2cc(C(=O)NCCCN3CCCC3)c3ncccc3c21`: the IC50 turned out to be 1060 nM in data set [1] and 870 nM in data set [2].

Regarding `Cn1c2ccccc2c2cc(C(=O)NCCCN3CCOCC3)c3ncccc3c21`, the IC50 came out at 1410 nM in data set [1] and 710 nM in data set [2].

As for `CN(C)CCCNC(=O)c1cc2c3ccccc3oc2c2cccnc12`, the IC50 in data set [1] came out at 2060 nM; in data set [2] it was 2230 nM.

For the compound `CN(C)CCCNC(=O)c1cc2c3ccccc3sc2c2cccnc12`, the IC50 stood at 1160 nM in data set [1] and 600 nM in data set [2].

As to `CN(C)CCNC(=O)c1cc2c3ccccc3oc2c2cccnc12`, the IC50 in data set [1] turned out to be 2270 nM; in data set [2] it was 1890 nM.

For the compound `CN(C)CCNC(=O)c1cc2c3ccccc3sc2c2cccnc12`, the IC50 in data set [1] amounted to 600 nM; in data set [2] it was 270 nM.

Turning to `COc1ccc2c(c1)c1cc(C(=O)NCCN(C)C)c3ncccc3c1n2C`, the results for the IC50 in data set [1] and in data set [2] were 200 nM and 220 nM, respectively.

Take `CN(C)CCNC(=O)c1cc2c3cc(O)ccc3n(C)c2c2cccnc12`: the results for the “Ratio IC50” value in data set [4] and in data set [5] were 10 and 7, respectively. For the same compound, the IC50 in data set [1] was found to be 110 nM; in data set [2], 70 nM.

In the case of `CN(C)CCNC(=O)c1cc2c3cc(F)ccc3n(C)c2c2cccnc12`, the IC50 in data set [1] was 160 nM; in data set [2], 170 nM.

On to `CN(C)CCNC(=O)c1cc2c3cc(Cl)ccc3n(C)c2c2cccnc12`, for which the figures for the concentration for half-maximal inhibition (IC50) in data set [1] and in data set [2] were 230 nM and 260 nM, respectively.

`CN(C)CCNC(=O)c1cc2c3ccccc3[nH]c2c2cccnc12`: the IC50 stood at 830 nM in data set [1] and 690 nM in data set [2].

`CN(C)CCCNC(=O)c1cc2c3ccccc3[nH]c2c2cccnc12`: the IC50 worked out at 1390 nM in data set [1] and 770 nM in data set [2].

For `CN(C)CCNC(=O)c1cc2c3ccccc3n(C)c2c2cccnc12`, the IC50 in data set [1] worked out at 470 nM; in data set [2], 390 nM.
